# ChEMBL document CHEMBL2169851, “Imidazopyridazinones as novel PDE7 inhibitors: SAR and in vivo studies in Parkinson's disease model” (Bioorg Med Chem Lett, 2012)
# Assays:
# [1] = biological target: T1, High affinity 3',5'-cyclic-AMP phosphodiesterase 7A (Homo sapiens, UniProt Q13946); assay: Inhibition of cloned human recombinant PDE7A assessed as [3H]cAMP hydrolysis by radiometric assay
# [2] = biological target: T1, High affinity 3',5'-cyclic-AMP phosphodiesterase 7A; assay: Inhibition of cloned human recombinant PDE7A assessed as [3H]cAMP hydrolysis at 1 uM by radiometric assay
# T1 sequence (Q13946 whole entry): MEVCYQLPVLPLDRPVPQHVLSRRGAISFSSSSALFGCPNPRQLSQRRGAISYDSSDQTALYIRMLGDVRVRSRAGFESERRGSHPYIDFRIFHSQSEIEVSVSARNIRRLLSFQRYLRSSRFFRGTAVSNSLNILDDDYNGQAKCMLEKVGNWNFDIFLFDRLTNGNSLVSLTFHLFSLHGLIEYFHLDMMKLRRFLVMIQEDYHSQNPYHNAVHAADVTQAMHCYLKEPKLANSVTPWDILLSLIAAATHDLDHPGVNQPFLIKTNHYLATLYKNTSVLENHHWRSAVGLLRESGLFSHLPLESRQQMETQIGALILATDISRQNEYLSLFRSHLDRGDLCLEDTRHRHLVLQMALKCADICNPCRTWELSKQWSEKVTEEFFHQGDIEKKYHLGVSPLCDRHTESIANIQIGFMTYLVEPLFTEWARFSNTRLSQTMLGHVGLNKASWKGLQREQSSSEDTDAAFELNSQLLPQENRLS
IC50 [1] [nM],inhibition [2] [%],Structure (SMILES)
77,–,COc1cc(N2CC[C@@H](N)C2)ccc1-c1nc2c(C)nn(C3CCCCC3)c(=O)c2[nH]1
104,–,COc1cc(N2CCNCC2)ccc1-c1nc2c(C)nn(C3CCCCC3)c(=O)c2[nH]1
–,6,CCCCC(CC)Cn1nc(C)c2nc(-c3ccc(N4CCC(N)CC4)cc3OC)[nH]c2c1=O (configuration not stated)
24,–,CNC(=O)Nc1ccc(-c2nc3c(C)nn(C4CCCCC4)c(=O)c3[nH]2)c(OC)c1
45,–,COc1cc(-c2cn[nH]c2)ccc1-c1nc2c(C)nn(C3CCCCC3)c(=O)c2[nH]1
93,–,COc1cc(CCC(N)=O)ccc1-c1nc2c(C)nn(C3CCCCC3)c(=O)c2[nH]1
–,13,COc1cc(N2CCC(N)CC2)ccc1-c1nc2c(C)nn(Cc3ccccc3)c(=O)c2[nH]1
